This passage reports EC50 results from ChEMBL document CHEMBL1158103, “Theopapuamide, a cyclic depsipeptide from a Papua New Guinea lithistid sponge Theonella swinhoei” (J Nat Prod, 2006).

Assay [1] can be described thus: Cytotoxicity against human CEM-TART cells after 72 hrs by MTT assay. It counts as cell-based. In general terms: Tetrazolium dyes change colour on reduction, which living cells bring about.
Assay [2] in a line: Cytotoxicity against human HCT 116 cells after 48 hrs by MTT assay. As to conditions: HCT-116, 48 h. In kind it is functional, cell-based.

The term EC50 denotes the midpoint of the concentration-response curve. A higher EC50 goes with lower potency in that assay. As to `CCC(C)CC(C)C(O)C(C)C(=O)N[C@H](CN)C(=O)NC(C(O)C(O)C(=O)N[C@H](C(=O)N[C@H]1C(=O)N[C@H]([C@@H](C)O)C(=O)N[C@H](CCCN)C(=O)N[C@@H](CC(C)C)C(=O)N(C)[C@@H](CCC(N)=O)C(=O)N[C@@H]([C@@H](OC)C(N)=O)C(=O)N[C@H](CC(N)=O)C(=O)N(C)[C@@H](CC(C)C)C(=O)O[C@@H]1C)[C@H](C)C(C)C(N)=O)C(C)(C)O` (some centres not stated) [THEOPAPUAMIDE], the figures for the EC50 in assay [1] and in assay [2] were 500 nM and 900 nM, respectively.
